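Results reflect a 48-hour exposure of cells in 96-well plates to compound at five concentrations. Abbreviation: GI50, concentration required for 50% inhibition of growth. TGI denotes the concentration required for complete inhibition of growth.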
Experiments:
Assay in all cases: DTP human tumour cell line panel, 48 h
[1] = system: K-562 leukemia
[2] = system: SK-MEL-5 melanoma
[3] = system: SW-620 colon
[4] = system: NCI-H460 lung
[5] = system: 786-0 renal
[6] = system: MOLT-4 leukemia
[7] = system: MALME-3M melanoma
[8] = system: T-47D breast
[9] = system: CAKI-1 renal
[10] = system: SF-539 CNS

Compound | GI50 [1] [µM] | TGI [1] [µM] | GI50 [2] [µM] | TGI [2] [µM] | GI50 [3] [µM] | TGI [3] [µM] | GI50 [4] [µM] | TGI [4] [µM] | GI50 [5] [µM] | TGI [5] [µM] | GI50 [6] [µM] | TGI [6] [µM] | GI50 [7] [µM] | TGI [7] [µM] | GI50 [8] [µM] | TGI [8] [µM] | GI50 [9] [µM] | TGI [9] [µM] | GI50 [10] [µM] | TGI [10] [µM]
CCN(CC)CCCC(C)N=c1cc(Nc2cc(=NC(C)CCCN(CC)CC)c3cc(OC)ccc3o2)oc2ccc(OC)cc12 (centres undefined) | 1.19 | 4.76 | 0.731 | 1.39 | 0.672 | 3.04 | 0.679 | 2.15 | 2.26 | 8.01 | 0.725 | 2.93 | 0.937 | 1.74 | 2.92 | 13.2 | 1.34 | 5.75 | 0.803 | 1.5
COC(=O)/C=C/c1cn(C(C)=O)c2ccc(Br)cc12 | 0.967 | > 23 | 33.5 | > 100 | 35.6 | > 100 | 34.6 | > 100 | 17.4 | 39.2 | 27.4 | > 100 | 24.9 | > 88.8 | 23.4 | > 100 | 19.1 | 44.2 | 29.9 | > 100
CC(=O)[C@@]1(O)[C@H](C)C[C@H]2[C@@H]3C=C(C)C4=Cc5c(cnn5-c5ccccc5)C[C@]4(C)[C@H]3[C@@H](O)C[C@@]21C | 0.659 |  | 1.61 | 4.21 | 1.91 | 4.27 | 1.4 | 3.69 | 2.23 | 5.2 | 0.842 | 8.7 | 1.76 | 5.36 | 2.3 | 10.3 | 2.46 | 6.44 | 1.22 | 2.85
Cc1cc(Oc2ccc3nc(COc4ccc(CC5SC(=O)NC5=O)cc4)n(C)c3c2)cc(C)c1N (centres undefined) | 35.4 | > 100 | 15.6 | 32.5 | 30.6 | > 100 | 26.6 | > 90.7 | 49.9 | > 100 | 26.4 | 69.5 | > 53.3 | > 100 | 25.7 | > 66.9 | 30.9 | > 100 | 43.3 | > 83.4
N#CS.N=C=S.N=C=S.[Cu+2].[NH2-].[NH2-].[NH2-].[NH2-].c1ccc2ncccc2c1 | > 100 | > 100 | 17.8 | 38.7 | > 100 | > 100 | 22.6 | 48.7 | > 100 | > 100 | > 100 | > 100 | > 100 | > 100 | > 100 | > 100 | > 100 | > 100 | > 100 | > 100
